Laboratory results published in patent US11254686B1 (Corvus Pharmaceuticals, Inc., priority 2017, dated 2022).
pIC50: −log10 of the molar value.

Legend:
adenosine A2B receptor = adenosine A2B receptor (Homo sapiens (Human), UniProt P29275); test: Adenosine receptor activity assay (Table 1), A2B activity; format: biochemical; conditions: for Ratio: A2A activity to A2B activity (A2A/A2B); for pIC50: read-out: Ave A2B cAMP IC50
adenosine A2A receptor = adenosine A2A receptor (Homo sapiens (Human), UniProt P29274); test: Adenosine receptor activity assay (Table 1), A2A activity; format: biochemical; conditions: read-out: Ave A2A cAMP IC50
Sequence of adenosine A2A receptor (P29274 whole entry): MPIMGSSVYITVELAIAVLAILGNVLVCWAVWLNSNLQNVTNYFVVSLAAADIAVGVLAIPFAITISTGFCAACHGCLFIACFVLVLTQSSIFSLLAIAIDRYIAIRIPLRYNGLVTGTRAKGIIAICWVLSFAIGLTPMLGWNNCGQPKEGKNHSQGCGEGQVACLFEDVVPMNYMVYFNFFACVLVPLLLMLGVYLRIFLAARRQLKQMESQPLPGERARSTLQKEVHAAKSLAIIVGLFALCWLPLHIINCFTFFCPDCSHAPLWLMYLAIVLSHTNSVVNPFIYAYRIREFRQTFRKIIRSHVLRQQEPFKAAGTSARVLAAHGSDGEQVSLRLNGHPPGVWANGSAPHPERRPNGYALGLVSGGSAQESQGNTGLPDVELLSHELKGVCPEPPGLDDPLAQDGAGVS

adenosine A1 receptor = adenosine A1 receptor (Homo sapiens (Human), UniProt P30542); test: A1 cAMP IC50 assay (Table 1); format: biochemical
Sequence of adenosine A1 receptor (P30542 whole entry): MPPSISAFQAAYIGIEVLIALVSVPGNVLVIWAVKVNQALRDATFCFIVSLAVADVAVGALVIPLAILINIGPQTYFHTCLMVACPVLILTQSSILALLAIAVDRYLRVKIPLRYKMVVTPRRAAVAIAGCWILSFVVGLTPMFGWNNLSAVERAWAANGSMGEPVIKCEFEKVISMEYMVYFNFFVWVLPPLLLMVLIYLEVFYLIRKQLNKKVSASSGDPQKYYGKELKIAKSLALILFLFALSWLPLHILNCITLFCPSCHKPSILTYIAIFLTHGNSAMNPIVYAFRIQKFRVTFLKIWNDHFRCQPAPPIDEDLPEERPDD

adenosine A3 receptor = adenosine A3 receptor (Homo sapiens (Human), UniProt P0DMS8); test: A3 cAMP IC50 assay (Table 1); format: biochemical
Sequence of adenosine A3 receptor (P0DMS8 whole entry): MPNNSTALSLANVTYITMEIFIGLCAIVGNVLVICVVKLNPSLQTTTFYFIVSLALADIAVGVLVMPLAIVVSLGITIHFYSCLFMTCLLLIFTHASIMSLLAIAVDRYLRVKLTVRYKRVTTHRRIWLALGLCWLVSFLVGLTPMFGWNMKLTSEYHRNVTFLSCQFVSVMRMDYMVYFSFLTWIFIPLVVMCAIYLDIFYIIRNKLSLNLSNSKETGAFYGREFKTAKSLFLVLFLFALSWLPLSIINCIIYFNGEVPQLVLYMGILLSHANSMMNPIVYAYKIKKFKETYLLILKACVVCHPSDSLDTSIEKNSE

[1] = Hepatocyte (Hep) intrinsic clearance, rat; format: in vitro ADME; conditions: hepatocytes
[2] = Hepatocyte (Hep) intrinsic clearance, human; format: in vitro ADME; conditions: hepatocytes

Sequence of adenosine A2B receptor (P29275 whole entry): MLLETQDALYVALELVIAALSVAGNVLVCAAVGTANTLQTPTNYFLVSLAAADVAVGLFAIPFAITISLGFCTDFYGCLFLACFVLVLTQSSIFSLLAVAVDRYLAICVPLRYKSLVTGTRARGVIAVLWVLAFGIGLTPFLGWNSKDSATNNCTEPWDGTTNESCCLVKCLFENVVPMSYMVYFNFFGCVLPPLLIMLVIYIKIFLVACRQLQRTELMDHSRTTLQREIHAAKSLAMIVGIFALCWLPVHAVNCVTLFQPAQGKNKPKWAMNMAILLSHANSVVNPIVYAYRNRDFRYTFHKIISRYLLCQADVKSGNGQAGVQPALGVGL

In the case of `C[C@H](Nc1nc(C(=O)N2CC[C@H](O)C2)c2sccc2n1)c1cccc(F)c1` [Example Z129, (2-(((S)-1-(3-Fluorophenyl)ethyl)amino)thieno[3,2-d]pyrimidin-4-yl)((S)-3-hydroxypyrrolidin-1-yl)methanone], the Ratio (adenosine A2B receptor) was 22.27, the pIC50 (adenosine A2B receptor) was 7.30 to 8.00 and the pIC50 (adenosine A2A receptor) was 6.30 to 7.00. The pIC50 (adenosine A1 receptor) was < 6.30, the pIC50 (adenosine A3 receptor) was 7.00 to 7.30 and the hepatocyte CLint [1] was 43 µL/min/1e6 cells. It also gave a hepatocyte CLint [2] of 9.59 µL/min/1e6 cells.

For `COc1cc(F)cc(CNc2nc(C(=O)N3CC(O)C3)c3sccc3n2)c1` [Example Z137, (2-((3-Fluoro-5-methoxybenzyl)amino)thieno[3,2-d]pyrimidin-4-yl)(3-hydroxyazetidin-1-yl)methanone], the Ratio (adenosine A2B receptor) was 19.91, the pIC50 (adenosine A2B receptor) was 7.30 to 8.00 and the pIC50 (adenosine A2A receptor) was 6.30 to 7.00. For the same molecule, the pIC50 (adenosine A1 receptor) was < 6.30, the pIC50 (adenosine A3 receptor) was 7.30 to 8.00 and the hepatocyte CLint [1] was 66.8 µL/min/1e6 cells. The hepatocyte CLint [2] was 74.8 µL/min/1e6 cells.

For `C[C@H](Nc1nc(C(=O)N2CC(O)C2)c2sccc2n1)c1cccnc1` [Example Z138, (S)-(3-Hydroxyazetidin-1-yl)(2-((1-(pyridin-3-yl)ethyl)amino)thieno[3,2-d]pyrimidin-4-yl)methanone], the Ratio (adenosine A2B receptor) was 14.05, the pIC50 (adenosine A2B receptor) was 7.30 to 8.00 and the pIC50 (adenosine A2A receptor) was 6.30 to 7.00. For the same molecule, the pIC50 (adenosine A1 receptor) was < 6.30, the pIC50 (adenosine A3 receptor) was < 6.30 and the hepatocyte CLint [1] was 10.3 µL/min/1e6 cells. The hepatocyte CLint [2] was 1.14 µL/min/1e6 cells.

For `COC1CN(C(=O)c2nc(N[C@@H](C)c3cccnc3)nc3ccsc23)C1` [Example Z139, (S)-(3-Methoxyazetidin-1-yl)(2-((1-(pyridin-3-yl)ethyl)amino)thieno[3,2-d]pyrimidin-4-yl)methanone], the Ratio (adenosine A2B receptor) was 8.08, the pIC50 (adenosine A2B receptor) was > 8.00 and the pIC50 (adenosine A2A receptor) was 7.00 to 7.30. For the same molecule, the pIC50 (adenosine A1 receptor) was < 6.30, the pIC50 (adenosine A3 receptor) was < 6.30 and the hepatocyte CLint [1] was 24.2 µL/min/1e6 cells. It also gave a hepatocyte CLint [2] of 7.67 µL/min/1e6 cells.

In the case of `N#Cc1cncc(CNc2nc(C(=O)N3CCCC3)c3sccc3n2)c1` [Example Z141, 5-(((4-(Pyrrolidine-1-carbonyl)thieno[3,2-d]pyrimidin-2-yl)amino)methyl)nicotinonitrile], the Ratio (adenosine A2B receptor) was 35.53, the pIC50 (adenosine A2B receptor) was 7.30 to 8.00 and the pIC50 (adenosine A2A receptor) was < 6.30. For the same molecule, the pIC50 (adenosine A1 receptor) was < 6.30, the pIC50 (adenosine A3 receptor) was < 6.30 and the hepatocyte CLint [1] was 102 µL/min/1e6 cells. The hepatocyte CLint [2] was 38.7 µL/min/1e6 cells.

In the case of `C[C@H](Nc1nc(C(=O)NCCO)c2sccc2n1)c1cccnc1` [Example Z145, (S)—N-(2-Hydroxyethyl)-2-((1-(pyridin-3-yl)ethyl)amino)thieno[3,2-d]pyrimidine-4-carboxamide], the pIC50 (adenosine A2B receptor) was 7.30 to 8.00, the pIC50 (adenosine A2A receptor) was 6.30 to 7.00 and the hepatocyte CLint [1] was 8.46 µL/min/1e6 cells. For the same molecule, the hepatocyte CLint [2] was 1.92 µL/min/1e6 cells.

For `C[C@H](Nc1nc(C(=O)NC2CCC2)c2sccc2n1)c1ccccn1` [Example Z147, (S)—N-Cyclobutyl-2-((1-(pyridin-2-yl)ethyl)amino)thieno[3,2-d]pyrimidine-4-carboxamide], the Ratio (adenosine A2B receptor) was 2.82, the pIC50 (adenosine A2B receptor) was > 8.00 and the pIC50 (adenosine A2A receptor) was 7.30 to 8.00. The pIC50 (adenosine A1 receptor) was < 6.30, the pIC50 (adenosine A3 receptor) was 6.30 to 7.00 and the hepatocyte CLint [1] was 68.3 µL/min/1e6 cells. The hepatocyte CLint [2] was 43.5 µL/min/1e6 cells.

In the case of `CNc1cc2nc(N[C@@H](C)c3cccnc3)nc(C(=O)N3CCCC3)c2s1` [Example Z152, (S)-(6-(Methylamino)-2-((1-(pyridin-3-yl)ethyl)amino)thieno[3,2-d]pyrimidin-4-yl)(pyrrolidin-1-yl)methanone], the Ratio (adenosine A2B receptor) was 53.70, the pIC50 (adenosine A2B receptor) was > 8.00 and the pIC50 (adenosine A2A receptor) was 6.30 to 7.00. For the same molecule, the pIC50 (adenosine A1 receptor) was < 6.30, the pIC50 (adenosine A3 receptor) was 7.00 to 7.30 and the hepatocyte CLint [1] was 38.3 µL/min/1e6 cells. The hepatocyte CLint [2] was 12.3 µL/min/1e6 cells.

Molecule `C[C@H](Nc1nc(C(=O)NC2CC(O)C2)c2sccc2n1)c1ccccn1` (stereo partly drawn) [Example Z158, N-((1s,3R)-3-Hydroxycyclobutyl)-2-(((S)-1-(pyridin-2-yl)ethyl)amino)thieno[3,2-d]pyrimidine-4-carboxamide] has a Ratio (adenosine A2B receptor) of 9.39, a hepatocyte CLint [1] of 22.6 µL/min/1e6 cells and a hepatocyte CLint [2] of 20.6 µL/min/1e6 cells.

With `C[C@H](Nc1nc(C(=O)N2CCC2)c2sccc2n1)c1cncc(F)c1` [Example Z164, (S)-Azetidin-1-yl(2-((1-(5-fluoropyridin-3-yl)ethyl)amino)thieno[3,2-d]pyrimidin-4-yl)methanone] the Ratio (adenosine A2B receptor) was 49.96, the pIC50 (adenosine A2B receptor) was > 8.00 and the pIC50 (adenosine A2A receptor) was 7.00 to 7.30. For the same molecule, the pIC50 (adenosine A1 receptor) was < 6.30, the pIC50 (adenosine A3 receptor) was < 6.30 and the hepatocyte CLint [1] was 34 µL/min/1e6 cells. For the same molecule, the hepatocyte CLint [2] was 13.5 µL/min/1e6 cells.

With `C[C@H](Nc1nc(C(=O)N2CC[C@H](O)C2)c2sccc2n1)c1cncc(F)c1` [Example Z165, (2-(((S)-1-(5-Fluoropyridin-3-yl)ethyl)amino)thieno[3,2-d]pyrimidin-4-yl)((S)-3-hydroxypyrrolidin-1-yl)methanone] the Ratio (adenosine A2B receptor) was 73.68, the pIC50 (adenosine A2B receptor) was > 8.00 and the pIC50 (adenosine A2A receptor) was < 6.30. The pIC50 (adenosine A1 receptor) was < 6.30, the pIC50 (adenosine A3 receptor) was < 6.30 and the hepatocyte CLint [1] was 14.8 µL/min/1e6 cells. It also gave a hepatocyte CLint [2] of 5.66 µL/min/1e6 cells.

In the case of `C[C@H](Nc1nc(C(=O)N2CC[C@@H](O)C2)c2sccc2n1)c1cncc(F)c1` [Example Z166, (2-(((S)-1-(5-Fluoropyridin-3-yl)ethyl)amino)thieno[3,2-d]pyrimidin-4-yl)((R)-3-hydroxypyrrolidin-1-yl)methanone], the Ratio (adenosine A2B receptor) was 62.32, the pIC50 (adenosine A2B receptor) was 7.30 to 8.00 and the pIC50 (adenosine A2A receptor) was < 6.30. For the same molecule, the pIC50 (adenosine A1 receptor) was < 6.30, the pIC50 (adenosine A3 receptor) was < 6.30 and the hepatocyte CLint [1] was 16.6 µL/min/1e6 cells. The hepatocyte CLint [2] was 4.51 µL/min/1e6 cells.

With `O=C(NC1CCC1)c1nc(NCc2cc(F)cc(F)c2)nc2ccsc12` [Example Z177, N-Cyclobutyl-2-((3,5-difluorobenzyl)amino)thieno[3,2-d]pyrimidine-4-carboxamide] the Ratio (adenosine A2B receptor) was 7.01, the pIC50 (adenosine A2B receptor) was 7.30 to 8.00 and the pIC50 (adenosine A2A receptor) was 7.00 to 7.30. For the same molecule, the pIC50 (adenosine A1 receptor) was 7.00 to 7.30 and the pIC50 (adenosine A3 receptor) was < 6.30.

In the case of `C[C@H](Nc1nc(C(=O)NC2CCCC2)c2sccc2n1)c1ccccn1` [Example Z180, (S)—N-Cyclopentyl-2-((1-(pyridin-2-yl)ethyl)amino)thieno[3,2-d]pyrimidine-4-carboxamide], the Ratio (adenosine A2B receptor) was 1.80, the pIC50 (adenosine A2B receptor) was 7.30 to 8.00 and the pIC50 (adenosine A2A receptor) was 7.30 to 8.00. The pIC50 (adenosine A1 receptor) was 6.30 to 7.00 and the pIC50 (adenosine A3 receptor) was 6.30 to 7.00.

In the case of `O=C(NC1CC(O)C1)c1nc(NCc2cncc(F)c2)nc2ccsc12` (centres unmarked) [Example Z184, 2-(((5-Fluoropyridin-3-yl)methyl)amino)-N-((1r,3r)-3-hydroxycyclobutyl)thieno[3,2-d]pyrimidine-4-carboxamide], the Ratio (adenosine A2B receptor) was 25.53, the pIC50 (adenosine A2B receptor) was 7.30 to 8.00 and the pIC50 (adenosine A2A receptor) was < 6.30. For the same molecule, the pIC50 (adenosine A1 receptor) was < 6.30 and the pIC50 (adenosine A3 receptor) was < 6.30.

With `CNc1cc2nc(N[C@@H](C)c3cccnc3)nc(C(=O)N3CC[C@H](F)C3)c2s1` [Example Z187, ((S)-3-Fluoropyrrolidin-1-yl)(6-(methylamino)-2-(((S)-1-(pyridin-3-yl)ethyl)amino)thieno[3,2-d]pyrimidin-4-yl)methanone] the Ratio (adenosine A2B receptor) was 48.67, the pIC50 (adenosine A2B receptor) was > 8.00 and the pIC50 (adenosine A2A receptor) was 6.30 to 7.00. The pIC50 (adenosine A1 receptor) was < 6.30 and the pIC50 (adenosine A3 receptor) was 7.00 to 7.30.

In the case of `C[C@H](Nc1nc(C(=O)N2CCC2)c2sc(N)cc2n1)c1ccccn1` [Example Z189, (S)-(6-Amino-2-((1-(pyridin-2-yl)ethyl)amino)thieno[3,2-d]pyrimidin-4-yl)(azetidin-1-yl)methanone], the Ratio (adenosine A2B receptor) was 36.15, the pIC50 (adenosine A2B receptor) was > 8.00 and the pIC50 (adenosine A2A receptor) was 6.30 to 7.00. The pIC50 (adenosine A1 receptor) was < 6.30 and the pIC50 (adenosine A3 receptor) was 7.00 to 7.30.

In the case of `C[C@H](Nc1nc(C(=O)NC2CC2)c2sccc2n1)c1ccccn1` [Example Z192, (S)—N-Cyclopropyl-2-((1-(pyridin-2-yl)ethyl)amino)thieno[3,2-d]pyrimidine-4-carboxamide], the Ratio (adenosine A2B receptor) was 6.93, the pIC50 (adenosine A2B receptor) was > 8.00 and the pIC50 (adenosine A2A receptor) was 7.30 to 8.00. For the same molecule, the pIC50 (adenosine A1 receptor) was 7.00 to 7.30 and the pIC50 (adenosine A3 receptor) was < 6.30.
